Values after ≈ are worked out from the molar mass of the structure shown. Like-named read-outs stand apart in the source and are kept apart here.
How the values were obtained:
WT OleD [1] = molecular target: T1, WT OleD (Streptomyces antibioticus, UniProt Q53685, P55A/R82V/R83E/T84P); assay: Fluorescence-based glycosyltransferase assay in E. coli crude cell extracts; type: biochemical
T1 construct: made in house; host or cells: E. coli BL21(DE3)pLysS, plasmid pET28/OleD
Experimental: Individual colonies were used to inoculate wells of a 96-deep well microtitre plate wherein each well contained 1 ml of LB medium supplemented with 50 μg/ml kanamycin. Culture plates were tightly sealed with AeraSeal™ breathable film (Research Products International Corp.). After cell growth at 37° C. for 18 h with shaking at 350 rpm, 100 μl of each culture was transferred to a fresh deep-well plate containing 1 ml of LB medium supplemented with 50 μg/ml kanamycin. The original plate was sealed and stored at 4° C., or a glycerol copy made by mixing 100 μl of each culture with 100 µl 50% (v/v) glycerol and storing at −80° C. The freshly inoculated plate was incubated at 37° C. for 2-3 h with shaking at 350 rpm. […]
For the assay, cleared supernatant was mixed with an equal volume (501) of 50 mM Tris-HCl (pH 8.0) containing 10 mM MgCl2, 0.2 mM 4-Me-umb (FIG. 1: 4), and 1.0 mM UPDG (FIG. 3: 2) using a Biomek FX Liquid Handling Workstation (Beckman Coulter, Fullerton, Calif.). Upon mixing, the fluorescence at excitation 350 nm and emission 460 nm was measured using a FLUOstar Optima plate reader (BMG Labtechnologies, Durham, N.C.) and the reactions incubated for 4 h at 30° C., at which time the fluorescence measurement was repeated. Activity of the clones was expressed as the difference in fluorescence intensity between 0 h and 3 h.

OleD S132F = molecular target: T2, OleD S132F (Streptomyces antibioticus, UniProt Q53685, P55A/R82V/R83E/S132F/T84P); assay: Specific activity with novobiocic acid or 4-Me-umb as acceptor and UDP-Glc; type: biochemical; settings: UDP-Glc donor
T2 construct: made in house; host or cells: E. coli (site-directed mutant of pET28/OleD)
Experimental: (§1) Determination of specific activity with 1 or 4 as acceptor. Enzyme reactions were carried out in a total volume of 100 μl/50 mM Tris-HCl (pH8.0) containing 5 mM MgCl2, 200 μM (FIG. 9: 1) or (FIG. 9: 4), 5 mM (FIG. 12: 5), and typically 10-50 μg pure enzyme. At a suitable time interval during which rate of product formation was linear with time (typically 2-20 min), reactions were quenched with 100 μl MeOH, and the samples centrifuged at 10,000 g for 10 min. Supernatants were analyzed by analytical reverse-phase HPLC with a Gemini 5μ C18 column (Phenomenex) using a gradient of 10-90% CH3CN in 0.1% trifluoroacetic acid (TFA)/H2O in 20 min, with detection at 254 nm. […] The identity of (FIG. 9: 7) was confirmed by LC-MS and NMR while the […] of glucoside (FIG. 9: 6) was confirmed by co-elution with a commercial standard and LC-MS analysis. HPLC peak areas were integrated, and the product concentrations calculated as a percent of the total peak area. Specific activity was expressed as nmols product formed/min/mg protein.

OleD I112T = molecular target: T3, OleD I112T (Streptomyces antibioticus, UniProt Q53685, I112T/P55A/R82V/R83E/T84P); assay: as above; type: biochemical; settings: UDP-Glc donor
T3 construct: made in house; host or cells: E. coli (site-directed mutant of pET28/OleD)
Experimental: as §1

OleD G340W = molecular target: T4, OleD G340W (Streptomyces antibioticus, UniProt Q53685, G340W/P55A/R82V/R83E/T84P); assay: as above; type: biochemical; settings: UDP-Glc donor
T4 construct: made in house; host or cells: E. coli (site-directed mutant of pET28/OleD)
Experimental: as §1

OleD A242V = molecular target: T5, OleD A242V (Streptomyces antibioticus, UniProt Q53685, A242V/P55A/R82V/R83E/T84P); assay: as above; type: biochemical; settings: UDP-Glc donor
T5 construct: made in house; host or cells: E. coli BL21(DE3)pLysS (error-prone PCR clone in pET28a)
Experimental: as §1

OleD P67T = molecular target: T6, OleD P67T (Streptomyces antibioticus, UniProt Q53685, P55A/P67T/R82V/R83E/T84P); assay: as above; type: biochemical; settings: UDP-Glc donor
T6 construct: made in house; host or cells: E. coli (site-directed mutant of pET28/OleD)
Experimental: as §1

[2] = Solubility limit of acceptors; type: physicochemical
OleD P67T/I112K/A242V = OleD P67T/I112K/A242V (Streptomyces antibioticus, UniProt Q53685, A242V/I112K/P67T); assay: Specific activity with novobiocic acid as acceptor and UDP-Glc; type: biochemical; settings: UDP-Glc donor
Experimental: as §1

OleD P67T/S132F/A242V = molecular target: T7, OleD P67T/S132F/A242V (Streptomyces antibioticus, UniProt Q53685, A242V/P67T/S132F); assay: as above; type: biochemical; settings: UDP-Glc donor
T7 construct: made in house; host or cells: E. coli (site-directed mutant of pET28/OleD)
Experimental: as §1

WT OleD [3] = molecular target: T1, WT OleD; type: biochemical; settings: named substrate varied, other substrate fixed at 5 mM
Experimental: Determination of kinetic parameters. Enzyme assays were carried out in a total volume of 100 μl 50 mM Tris-HCl (pH 8.0) containing 5 mM MgCl2, and typically 10-50 μg pure enzyme. Kinetic parameters kcat and Km were determined with both (FIG. 9: 1) and (FIG. 12: 5) as variable substrates. […] Each experiment was performed in triplicate. Aliquots ([…]) were removed between 0 and 30 min, at which time product formation was still linear with respect to time, and quenched with 100 μl of ice-cold MeOH, and centrifuged at 10,000 g for 10 min. Supernatants were analyzed by analytical reverse-phase HPLC as described above. The substrate (FIG. 9: 1) and the glucoside product (FIG. 9: 7) HPLC peak areas were integrated, and the product concentration calculated as a percent of the total peak area. Initial velocities were fitted to the Michaelis-Menten equation using Sigma Plot.

Compound: Cc1cc(=O)oc2cc(O)ccc12 [4-Me-umb (4), 7-hydroxy-4-methylcoumarin]
- activity in E. coli pET28/OleD crude cell extracts versus extracts not over-expressing OleD (WT OleD [1]): ~2 fold
- improvement in specific activity, S132F compared to WT OleD (OleD S132F): ~2.6 fold
- specific activity, I112T compared to WT OleD (OleD I112T): approximately 0.5 fold
- specific activity, G340W compared to WT OleD (OleD G340W): approximately 0.5 fold
- improvement in specific activity, A242V compared to WT OleD (OleD A242V): ~2.3 fold
- improvement in specific activity, P67T compared to WT OleD (OleD P67T): approximately 7 fold
- solubility ([2]; aqueous with cosolvent or surfactant or cyclodextrin, in water/DMSO, read-out: solubility limit): 10 mM (≈ 1760 µg/mL)
- solubility ([2]; enzyme assay buffer (50 mM Tris-HCl with 5 mM MgCl2), pH 8, limited solubility in assay, read-out: solubility): < 4 mM

Compound: CC(C)=CCc1cc(C(=O)Nc2c(O)c3ccc(O)c(C)c3oc2=O)ccc1O [novobiocic acid (29), novobiocic acid]
- improvement in specific activity, P67T/I112K/A242V over P67T/S132F/A242V (OleD P67T/I112K/A242V): twenty-eight
- improvement, P67T/I112K/A242V over the parent P67T/I112T/A242V (OleD P67T/I112K/A242V; purified enzymes): seven
- improvement in glucosylation activity, P67T/S132F/A242V compared to WT OleD (OleD P67T/S132F/A242V): five-fold
- improvement in specific activity, S132F compared to WT OleD (OleD S132F): two-three fold
- specific activity, I112T compared to WT OleD (OleD I112T): 7.4 fold
- specific activity, G340W compared to WT OleD (OleD G340W): non-beneficial
- improvement in specific activity, A242V compared to WT OleD (OleD A242V): two-three fold
- improvement in specific activity, P67T compared to WT OleD (OleD P67T): two-three fold
- solubility ([2]; in kinetic assay, read-out: solubility limit): 5 mM (≈ 1980 µg/mL)
- Km (WT OleD [3]): 2 mM
- kcat (WT OleD [3]): 0.000683 s⁻¹

Reference: patent US8093028B2, “Engineered glycosyltransferases with expanded substrate specificity” (Wisconsin Alumni Research Foundation, priority 2007, dated 2012)
